Calls of active or inactive are those of the source. The calls are words filed in the database; no cut-off is given here.

In general, IC50 refers to the concentration that inhibits the measured activity by half.

Experiment [1] has as its system 4T1. The experiment in a line: Antitumor activity against mouse 4T1 cells allografted in syngenetic BALB/c mouse assessed as tumor growth inhibition at 5 mg/kg, IT(Intratumoral) measured at day 11. Format: functional, organism-based. The conditions noted are these: time 11.0 day.
Experiment [2] concerns MDA-MB-231. Nature of the experiment: Antiproliferative activity against human MDA-MB-231 cells at 100 uM assessed as induction of cells death and measured after 24 hrs by Cell Titer Blue assay relative to control. The experiment is classed as functional, cell-based. For orientation: Resazurin is reduced to fluorescent resorufin, in cell work by metabolically active cells.

For experiment [3], the system named is MDA-MB-231. The experiment in a line: Antiproliferative activity against human MDA-MB-231 cells transfected with LY6K-ShRNA2 at 100 uM assessed as induction of cells death and measured after 24 hrs by Cell Titer Blue assay relative to control. The experiment is classed as functional, cell-based.
For experiment [4], the system named is MDA-MB-231. The experiment in a line: Down-regulation of PD-L1 expression in human MDA-MB-231 cells at 2 uM measured after 30 mins by Western blot analysis. Format: functional, cell-based. (In western blotting, separated proteins are transferred to a membrane and probed.)
Experiment [5] deals with Mothers against decapentaplegic homolog 2/homolog 3 (Homo sapiens) (UniProt P84022+Q15796). Nature of the experiment: Inhibition of TGF-beta1-induced Smad2/3 phopshorylation in human MDA-MB-231 cells at 2 uM measured after 30 mins by Western blot analysis. The experiment is classed as cell-based.
The target of experiment [6] is T1, Signal transducer and activator of transcription 1-alpha/beta (Homo sapiens) (UniProt P42224).
T1 sequence (whole entry): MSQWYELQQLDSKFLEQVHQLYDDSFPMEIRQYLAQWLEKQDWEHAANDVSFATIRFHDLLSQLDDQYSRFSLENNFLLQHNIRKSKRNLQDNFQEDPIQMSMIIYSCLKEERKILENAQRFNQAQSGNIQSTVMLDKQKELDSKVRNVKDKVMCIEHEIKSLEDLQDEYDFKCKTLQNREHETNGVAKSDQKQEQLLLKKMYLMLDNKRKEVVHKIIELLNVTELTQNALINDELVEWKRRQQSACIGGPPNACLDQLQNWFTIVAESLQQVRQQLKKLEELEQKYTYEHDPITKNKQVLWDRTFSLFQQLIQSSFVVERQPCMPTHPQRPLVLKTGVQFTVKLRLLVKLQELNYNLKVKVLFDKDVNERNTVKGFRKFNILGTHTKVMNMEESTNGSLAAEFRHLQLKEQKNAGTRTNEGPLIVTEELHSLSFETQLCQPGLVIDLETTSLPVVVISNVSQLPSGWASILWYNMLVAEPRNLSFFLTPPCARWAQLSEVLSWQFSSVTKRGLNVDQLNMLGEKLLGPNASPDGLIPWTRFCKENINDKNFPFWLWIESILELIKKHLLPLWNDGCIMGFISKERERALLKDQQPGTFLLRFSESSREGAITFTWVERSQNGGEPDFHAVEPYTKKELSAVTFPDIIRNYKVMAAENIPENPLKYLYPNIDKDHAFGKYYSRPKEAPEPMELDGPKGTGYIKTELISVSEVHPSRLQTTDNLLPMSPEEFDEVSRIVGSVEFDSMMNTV
The experiment in a line: Inhibition of IFN-gamma-induced Stat1 phopshorylation in human MDA-MB-231 cells at 2 uM measured after 30 mins by Western blot analysis. Format: cell-based.

Experiment [7] relates to MDA-MB-231. Nature of the experiment: Antiproliferative activity against human MDA-MB-231 cells at 2 uM assessed as induction of cells death and measured after 24 hrs by Cell Titer Blue assay relative to control. Format: functional, cell-based.
For experiment [8], the system named is MDA-MB-231. The experiment in a line: Antiproliferative activity against human MDA-MB-231 cells transfected with LY6K-ShRNA2 at 2 uM assessed as induction of cells death and measured after 24 hrs by Cell Titer Blue assay relative to control. Format: functional, cell-based.
Experiment [9] relates to MDA-MB-231. Nature of the experiment: Antiproliferative activity against human MDA-MB-231 cells after 24 hrs by Cell Titer Blue assay. Format: functional, cell-based. The conditions noted are these: MDA-MB-231, 24 h.
The test system of another experiment is Hs-578T. The experiment in a line: Antiproliferative activity against human Hs-578T cells after 24 hrs by Cell Titer Blue assay. The experiment is classed as functional, cell-based.
Another experiment concerns BT-549. The experiment in a line: Antiproliferative activity against human BT-549 cells after 24 hrs by Cell Titer Blue assay. Format: functional, cell-based. The conditions noted are these: BT-549, 24 h.
A further experiment has as its system OVCAR-8. Nature of the experiment: Antiproliferative activity against human OVCAR-8 cells after 24 hrs by Cell Titer Blue assay. Format: functional, cell-based. The note with it: OVCAR-8, 24 h.
For experiment [10], the system named is 4T1. The experiment in a line: Antitumor activity against mouse 4T1 cells allografted in syngenetic BALB/c mouse assessed as tumor growth inhibition at 5 mg/kg, IT(Intratumoral) measured at day 3. The experiment is classed as functional, organism-based. The note with it: time 3.0 day.
A further experiment relates to E0771. The experiment in a line: Antitumor immunity in C57BL/6 mouse xenografted with mouse EO771 cells assessed as reduction in tumor growth at 10 mg/kg, ip administered every 3rd day. The experiment is classed as functional, organism-based. The conditions noted are these: time 3.0 day.
For experiment [11], the system named is 4T1. Nature of the experiment: Antitumor activity against mouse 4T1 cells xenografted mouse assessed as decrease in Cd11b and Gr-1-dual positive […] in peripheral blood at 50 mg/kg, iv. Format: functional, organism-based.
Experiment [12] deals with 4T1. The experiment in a line: Antitumor activity against mouse 4T1 cells xenografted mouse assessed as decrease in myeloid-derived suppressor cells (MDSCs) in peripheral blood at 50 mg/kg, iv. Format: functional. Also on record: scale not given: the % may be the effect or the level left.
The subject of experiment [13] is 4T1. Nature of the experiment: Induction of apoptosis in mouse 4T1 cells at 0.1 to 5 uM assessed as increase in PARP cleavage measured after 16 hrs by Western blot analysis. Format: functional, cell-based. The conditions noted are these: dose 0.1-5 µM.
Experiment [14] relates to 4T1. The experiment in a line: Induction of apoptosis in mouse 4T1 cells at 0.1 to 5 uM assessed as activation of caspase-3 measured after 16 hrs by Western blot analysis. Format: functional, cell-based. The conditions noted are these: dose 0.1-5 µM.
Experiment [15] concerns 4T1. Nature of the experiment: Induction of apoptosis in mouse 4T1 cells at 0.1 to 5 uM assessed as activation of caspase-7 measured after 16 hrs by Western blot analysis. The experiment is classed as functional, cell-based. The note with it: dose 0.1-5 µM.
For experiment [16], the system named is 4T1. Nature of the experiment: Down regulation of RhoA in mouse 4T1 cells at 0.1 to 5 uM measured after 16 hrs by Western blot analysis. The note with it: dose 0.1-5 µM. The experiment is classed as functional, cell-based.
The test system of experiment [17] is 4T1. The experiment in a line: Induction of autophagy in mouse 4T1 cells at 0.1 to 5 uM assessed as activation of LC3B measured after 16 hrs by Western blot analysis. The experiment is classed as functional, cell-based. The conditions noted are these: dose 0.1-5 µM.
The subject of experiment [18] is 4T1. Nature of the experiment: Effect on total Ly6K levels in mouse 4T1 cells at 0.1 to 5 […] measured by Western blotting analysis. Format: functional, cell-based. The note with it: dose 0.1-5 mM.

Sequence of Mothers against decapentaplegic homolog 2/homolog 3 (Homo sapiens) (P84022 whole entry, looked up): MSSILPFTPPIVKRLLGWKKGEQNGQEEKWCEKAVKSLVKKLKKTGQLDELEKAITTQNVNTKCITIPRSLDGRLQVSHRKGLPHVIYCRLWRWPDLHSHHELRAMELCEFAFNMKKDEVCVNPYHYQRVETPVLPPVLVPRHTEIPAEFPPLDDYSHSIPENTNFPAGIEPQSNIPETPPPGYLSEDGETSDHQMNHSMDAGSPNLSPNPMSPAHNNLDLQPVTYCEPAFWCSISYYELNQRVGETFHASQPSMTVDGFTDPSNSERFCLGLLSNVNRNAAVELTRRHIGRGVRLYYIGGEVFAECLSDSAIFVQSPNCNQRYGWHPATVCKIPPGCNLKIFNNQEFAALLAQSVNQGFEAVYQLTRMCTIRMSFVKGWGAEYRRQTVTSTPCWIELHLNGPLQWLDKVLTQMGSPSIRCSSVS
Sequence of Mothers against decapentaplegic homolog 2/homolog 3 (Homo sapiens) (Q15796 whole entry, looked up): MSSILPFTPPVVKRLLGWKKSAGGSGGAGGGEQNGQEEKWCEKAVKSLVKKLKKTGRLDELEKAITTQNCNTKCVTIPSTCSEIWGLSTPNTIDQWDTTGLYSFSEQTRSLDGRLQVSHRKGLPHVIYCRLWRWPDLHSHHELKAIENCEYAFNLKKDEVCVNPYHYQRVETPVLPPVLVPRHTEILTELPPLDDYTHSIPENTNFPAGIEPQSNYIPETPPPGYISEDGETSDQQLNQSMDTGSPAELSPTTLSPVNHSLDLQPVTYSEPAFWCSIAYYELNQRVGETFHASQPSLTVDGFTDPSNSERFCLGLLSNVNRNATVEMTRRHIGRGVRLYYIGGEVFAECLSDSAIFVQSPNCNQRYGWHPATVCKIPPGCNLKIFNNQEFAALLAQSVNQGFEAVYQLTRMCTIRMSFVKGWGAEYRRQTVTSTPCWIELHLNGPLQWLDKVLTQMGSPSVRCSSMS

For `Oc1ccc(Cc2ccc(Cl)cc2)c(O)c1`, the result with 4T1 [1], in the experiment with MDA-MB-231 [2] and with MDA-MB-231 [3] was Active. The outcome (in the experiment with MDA-MB-231 [4]; in [5]; in experiment [6]) was inactive.

As to `CCS(=O)(=O)Nc1ccc(Nc2c3ccccc3nc3ccccc23)c(OC)c1`, the outcome (in the experiment with MDA-MB-231 [7]; in the experiment on 4T1 [10]; in the experiment on E0771; in the experiment on MDA-MB-231 [4]; in experiment [5]; in experiment [6]) was Active. In addition, the outcome with 4T1 [11], in the experiment on 4T1 [13], in the experiment with 4T1 [14], in the experiment with 4T1 [15], with 4T1 [16] and with 4T1 [17] was Active. Moreover, the result in the experiment on 4T1 [18] was Active. Besides, the outcome with MDA-MB-231 [8] was inactive. For the same compound, the concentration for half-maximal inhibition (IC50) in the experiment on MDA-MB-231 [9] is 5.68 µM; in the experiment with Hs-578T it was 7.31 µM; with BT-549, 7.65 µM; in the experiment on OVCAR-8, 4.17 µM. For the same compound, the Activity with 4T1 [12] was found to be 90%.

These data come from ChEMBL document CHEMBL5050862, “Compounds for inhibiting ly6k and methods of using same” (2021).
